Results reported in US20130197030A1, “Substituted 1,3-Dioxanes and There Uses” (Evolva Sa, priority 2007, published 2013).

Columns and labels:
[1] = target: T1, Human Recombinant (E. coli) PPARgamma (Homo sapiens, UniProt P37231); experiment: PPAR gamma binding assay
T1 construct: host or cells: E. coli
T1 sequence (P37231 1-505): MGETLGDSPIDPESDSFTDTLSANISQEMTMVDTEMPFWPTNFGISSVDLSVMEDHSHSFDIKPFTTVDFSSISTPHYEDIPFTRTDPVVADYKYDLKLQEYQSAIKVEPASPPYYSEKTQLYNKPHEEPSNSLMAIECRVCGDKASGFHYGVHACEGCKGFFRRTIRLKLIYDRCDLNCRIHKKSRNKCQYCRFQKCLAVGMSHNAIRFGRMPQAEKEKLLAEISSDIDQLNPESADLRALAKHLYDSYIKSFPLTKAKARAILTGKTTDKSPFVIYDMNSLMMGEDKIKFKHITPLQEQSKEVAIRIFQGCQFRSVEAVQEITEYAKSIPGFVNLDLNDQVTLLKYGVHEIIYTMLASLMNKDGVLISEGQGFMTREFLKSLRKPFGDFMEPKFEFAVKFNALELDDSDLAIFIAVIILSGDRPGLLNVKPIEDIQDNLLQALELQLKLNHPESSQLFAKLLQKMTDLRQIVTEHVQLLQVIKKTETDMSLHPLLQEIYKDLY
Description: Incubation: 120 min. at 4° C.
The results are expressed as a percent of control specific binding ((measured specific binding/control specific binding)×100) obtained in the presence of the test compounds. The IC50 values (concentration causing a half-maximal inhibition of control specific binding) and Hill coefficients (nil) were determined by non-linear regression analysis of the competition curves generated with mean replicate values using Hill equation curve fitting (Y=D+[(A−D)/(1+(C/C50)nH)], where Y=specific binding, D=minimum specific binding, A=maximum specific binding, C=compound concentration, C50=IC50, and nH=slope factor). This analysis was performed using a software developed at Cerep (Hill software) and validated by comparison with data generated by the commercial software SigmaPlot 4.0 for Windows® (© 1997 by SPSS Inc.). The inhibition constants (Ki) were calculated using the Cheng Prusoff equation (Ki=IC50/(1+(L/KD)), where L=concentration of radioligand in the assay, and KD=affinity of the radioligand for the receptor).

KKA^y mice = experiment: In vivo effect on serum glucose and other parameters in KKA^y mice; conditions: dose not given
Description: 52 male KKA^y mice are obtained commercially (e.g., from Clea Japan) at an age of 6 weeks and put on a high fat diet upon arrival. Individual mice were housed in IVC Type II cages during both the acclimatization and the experimental phase. Both food (high fat diet) and water are supplied ad libitum.
1 animal per cage. […] Lights on at 06:00 a.m. Temperature: 21-25° C. Relative humidity target range: 55-60%.
Mice were randomized into treatment groups according to their 4-h fasting blood glucose.
4 hours after the last administration, non-fasting conditions.
Gamma irradiated high fat diet is commercially available (e.g., Research Diets, Inc. New Brunswick, N.J. (Product # D12266BI)).
Blood is collected into heparin containing glass capillaries which are subsequently centrifuged in a “Haematokrit 24” centrifuge (Hettich) at 15′200×g for 10 minutes at room temperature to obtain the hematocrit value.
The following serum parameters are determined on a COBAS INTEGRA 800 auto analyzer (Roche Diagnostics, Switzerland) using the reagents and protocols provided by the supplier.
All measurements are made on Day 14 of administration, except for the food intake and body weight measurements that are made on Day 12.

Thromboxane synthase = target: T2, Thromboxane synthase (Homo sapiens, UniProt P24557); experiment: Human platelet thromboxane synthase assay; assay type: biochemical
T2 construct: Human Platelet Thromboxane Synthase Assay; from tissue; host or cells: human platelets
T2 sequence (P24557 1-533): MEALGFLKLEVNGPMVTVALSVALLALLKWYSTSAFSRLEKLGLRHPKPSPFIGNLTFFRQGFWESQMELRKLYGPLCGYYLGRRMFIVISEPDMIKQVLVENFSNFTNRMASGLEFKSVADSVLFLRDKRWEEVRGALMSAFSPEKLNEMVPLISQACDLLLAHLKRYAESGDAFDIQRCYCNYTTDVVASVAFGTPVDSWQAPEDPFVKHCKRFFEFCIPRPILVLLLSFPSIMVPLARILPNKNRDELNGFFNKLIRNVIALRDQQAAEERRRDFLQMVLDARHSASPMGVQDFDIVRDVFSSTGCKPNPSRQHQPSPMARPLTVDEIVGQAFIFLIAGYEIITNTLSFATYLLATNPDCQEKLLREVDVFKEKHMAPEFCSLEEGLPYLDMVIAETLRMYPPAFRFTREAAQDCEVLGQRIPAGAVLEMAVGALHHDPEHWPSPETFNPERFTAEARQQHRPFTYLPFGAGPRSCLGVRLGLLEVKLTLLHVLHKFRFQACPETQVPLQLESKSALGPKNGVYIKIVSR
Description: The compounds were tested for thromboxane synthase inhibition essentially as described by Borsch-Haubold A G, Pasquet S, Watson S P. (1998). Direct inhibition of cyclooxygenase-1 and -2 by the kinase inhibitors SB 203580 and PD 98059. […] 1. Imidazole derivatives. J Med. Chem. (10):1139-48 according to the following:
Pre-incubation time, temp: 15 minutes at 25° C. Incubation time, temp: 3 minutes at 25° C.
Incubation Buffer: 10 mM Tris-HCl, pH 7.4
Quantification Method: ETA quantification of TxB2

Ki ([1]; [3H]-rosiglitazone 10 nM, Cheng Prusoff, read-out: PPARγ binding Ki): 2700 nM
IC50 ([1]; [3H]-rosiglitazone 10 nM, read-out: PPARγ binding IC50): 7400 nM
Heart weight (KKA^y mice; 14-day oral gavage BID): has no effect on heart weight
IC50 (Thromboxane synthase): 56 nM
inhibition at 5 µM (Thromboxane synthase; at 5 μM): 94%
Structure (SMILES): O=C(O)CC/C=C\CC1COC(c2coc3ccc(Cl)cc3c2=O)OC1c1ccccc1O (racemic) [Compound 3, (Z)-6-(2-(6-Chloro-4-oxo-4H-chromen-3-yl)-4-(2-hydroxyphenyl)-1,3-dioxan-5-yl)hex-4-enoic acid]
Binding to PPARgamma (in words) ([1]; compared with Compound A): binds to PPARgamma at least as well as Compound A
FFA (KKA^y mice; 14-day oral gavage BID): decreases the FFA
HbA1c levels (KKA^y mice; 14-day oral gavage BID): decreased
Body weight (KKA^y mice; oral gavage BID): do not alter body weight
Inhibition of thromboxane synthase (in words) (Thromboxane synthase): potent inhibitors of thromboxane synthase
